Experimental data published in patent US12629390B2, “Stabilized amorphous calcium carbonate for treatment of neurological, muscular and infertility diseases or conditions” (AMORPHICAL LTD., priority 2016, dated 2026).

Columns and labels:
sperm = details: addition to calcium-free mediums; Bhoumik et al. 2014; cited from earlier work
mdx mice = assay: serum creatinine kinase (CK) levels in mdx mice given calcium supplements orally; format: in vivo; details: 12 weeks
Excerpt: Experimental mice were administrated orally (by feeding or drinking) with control or test items. The control or test items were repeatedly administered daily until the study termination (after 12 weeks).
Animals were administrated with ACC by food or by drinking. Animals were administrated with CCC by food. Control was administrated by feeding. The control or test items were repeatedly administered daily until study termination.
At study termination blood sample was drawn from all animals under light anesthesia with Ketmaine/Xylazine, directly from the retro orbital sinus.
200 μl blood were collected into a yellow-cup tube with clotting activator gel. The tubes were kept at room temperature for at least 30 minutes for clotting and centrifuged at room temperature for 10 minutes at 4000 RPM. The serum samples are stored at 2-4° C. until delivered to CK analysis at A.M.L labs.

[1] = tested on: healthy skeletal muscle cultures; assay: myotube formation and contraction in healthy skeletal muscle cultures; format: cell-based, rat; details: added at 1 mM (final Ca2+ 2 mM)
Protocol: Stationary skeletal muscle cultures were prepared from healthy 1 day new born rat (Sprague Dawley, Harlan, Israel). The muscle tissue was dissected from posterior legs and was thoroughly minced. Digestion was performed with Trypsin-EDTA while gentle trituration. After 30 min the supernatant, containing dissociated cells, was collected and a fresh Trypsin-EDTA was added. This procedure was repeated two more times. Then, all supernatants were pooled, centrifuged, and the cell pellet was re-suspended in Proliferation Medium. Cells were seeded in a Gelatin coated 12 wells culture plates, 1×10^5 cells/well containing 1 mL of Proliferation Medium. Two days later, the medium was changed to Fusion Medium, which was then changed twice a week. The cultures were monitored by daily phase contrast microscopic observations from 24 hours after setting the cultures and onward.
Stock solution of 1% porcine gelatin in water, was sterilized by autoclave. Once cooled, 500 μl of the solution were added to each well of the 12-wells culture plat. After incubation for 20 min at room temperature, the excess solution was removed, and the cells were seeded.
For the proliferation stage, cells were cultured in: DMEM/F12 (containing 1 mM Ca^2+) +10% FBS, 25 μg/mL Gentamycin, and 2 mM L-Glutamine.
For the fusion stage the Proliferation Medium was changed with Fusion Medium, which was prepared as following: DMEM/F12 (containing 1 mM Ca2+), 2% horse serum (HS), 2 mM L-Glutamine, 25 μg/mL Gentamycin, and 4 units/100 mL Insulin (all purchased from Biological-Industries, Israel).
Control cultures were grown without further added calcium, or cultures enriched with free (soluble) stabilizer. The experiment was blinded by marking the various calcium preparations with arbitrary numerals only.
The components were added in one of the following ways: (i) aqueous suspensions of dry material; (ii) aqueous suspension of fresh material (before drying), or (iii) dissolved with HCl (to mimic the acidity which exists in the stomach. After dissolving was accomplished, the formed solutions were neutralized with 1M NaOH).

mice embryos = assay: in vitro embryo development in Quinn's Advantage cleavage media; format: cell-based
Protocol: CBA male mice were bred with BL C57 female mice. The mice were kept on a 12 hours photoperiod schedule with unlimited water and food supply. About 6 to 8 weeks after receiving offspring, each female mouse was injected IP with 5IU of pregnant mare serum gonadotropin (PMSG).
After 48 hours each female mouse was injected IP with 5IU human chorionic gonadotropin (hCG). Male mice proven to be fertile were then put together with the superovulated females. The next morning the female mice were examined for the presence of copulatory plugs. Females that had copulatory plugs were euthanized after 24 hours (approximately 36 hours post-coitus) and embryos at 2 cell stage were retrieved from the oviducts as following: the oviducts were dissected in Quinn's Advantage cleavage media (SAGE, Origio, Denmark) and the embryos were transferred to 20 μL drops with Quinn's Advantage cleavage media (SAGE, Origio, Denmark) overlaid with mineral oil and cultured at 37.0° C. under 5% CO2 and atmospheric oxygen. The collected embryos continued to grow, i.e. in-vitro culture (IVC), until blastocyst/hatching stage. To test the effect of amorphous calcium carbonate, the Quinn's Advantage cleavage media (“cleavage media” hereinafter) was supplemented with different additives, i.e. amorphous calcium carbonate stabilized by polyphosphate (ACC-PP), crystalline calcium carbonate (CCC), polyphosphate (PP), phosphoserine (PS) or sodium carbonate ([…]). All supplements were added as a freshly prepared suspension; the preparation of the ACC supplements were performed under aseptic conditions. Untreated cleavage media (without addition of any additive) was used as a control (identified as Cont Q). The embryos were evaluated every day by microscope observation for a detection of the following stages: 2 cells, compactions stage, blastocysts formation and hatching stage. The fraction (in percent) of the embryos reached each stage was calculated (the number of 2 cells embryos was set as 100%).

[2] = tested on: spinal cord-dorsal root ganglia (SC-DRG) slices; assay: nerve fiber sprouting from SC-DRG co-cultures; format: cell-based, rat; details: after 4 days of cultivation, portion of explants (out of 6)
Protocol: Neural and Vascular Reconstruction Gel ([…] Labs proprietary) is composed of two main components: high molecular hyaluronic acid (HA, 3×10^6 Da, BTG, Israel) and laminin (Sigma). […] The gel has the texture of a viscous liquid, it adheres easily and successfully the embedded cells or explants to the plastic or glass substratum, and enabled nerve fiber outgrowth in a 3D pattern. All the experiments were carried out and authorized by the local ethics committee recognized by the Israeli authorities for animal experimentation. Stationary organotypic cultures of dorsal root ganglia (DRG) and spinal cord (SC) as well as cultures of dissociated brain cells were prepared from rat fetuses (15 days of gestation, Lewis inbred, Harlan, Israel). Immediately after dissection, the isolated tissues were cut with a […] tissue chopper into small slices (of 400 μm thickness). In these studies, two tissue culture strategies were used. […] In the second method, the tissue slices were further dissociated with a trypsin-EDTA solution for 30 min, and washed with a culture medium. Subsequently, the dissociated cells were added to a suspension of chitosan powder or gastrolith powder (micro carriers, MCs) and incubated in suspension at 37° C. for 4 days. […] Calcium source were as following: ACC-Etidronic Acid (ACC-ET) (fresh suspension); ACC-Phosphoserine (ACC-PS) (fresh suspension); Gastrolith (dissolved with 0.1 M HCl and then neutralized with NaOH 1M); gastrolith powder; […] The cultures were monitored by daily phase contrast microscopic observations starting from 24 hours after setting the cultures onward. Suspensions of fresh ACC preparations consisted of particles forming a stable suspension. The gastrolith is a natural ACC isolated from crabs, and can be purchased only as a dry powder. In this form, its other characteristic components (such as calcium ions and proteins) are not available to the cells. In order to increase their bioavailability, the gastrolith powder was dissolved in 0.1 M HCl (which mimics the acidity which exists in the stomach) and then neutralized with 1M NaOH. […] The specimens were then incubated with rabbit anti-neurofilament antibodies (NF, Novus Biologicals, 1:500) to visualize the neurite outgrowth. […] Finally, the samples were rinsed again with wash buffer, and mounted with mounting medium (Immco Diagnostic, USA).

[3] = Example 15, pooled embryos, 3.3 mM in cleavage media
[4] = Example 17, mouse 1 sibling embryos, 1.7 mM in cleavage media
[5] = Example 17, mice 3-6 pooled embryos, 1.7 mM in cleavage media
[6] = Example 17, mouse 2 sibling embryos, 1.7 mM in cleavage media
[7] = Example 16, pooled embryos, 1.7 mM in cleavage media
[8] = Example 13, mice 3-7 pooled embryos, 1.6 mM in cleavage media
[9] = Example 14, pooled embryos, 1.6 mM in cleavage media

[Ca+2] [Ca^2+ ions]
increase of forward sperm motility (sperm): up to 20%

O=C([O-])[O-].[Ca+2] [CCC, crystalline calcium carbonate]
elevation of CK compared to mdx group on normal diet only (2M) (mdx mice; by food, diet with 1% elemental calcium (4M: synthetic ACC 5% PS; 3M: synthetic CCC)): not statistically significant | creatinine kinase (CK) in serum (mdx mice; group 3M: by food, diet with 1% elemental calcium): 21,676±14,508 IU/ml | muscle fibers after 7 days [1]: fewer, thinner and shorter muscle fibers | early formation of many myotubes, time of cultivation ([1]; dry powder suspended in water): later | 8 cell/d2: number of embryos (mice embryos; [3]): 3 | Blast/d3: number of embryos (mice embryos; [3]): 17 | Blast/d3: portion of the initial number of embryos (mice embryos; [3]): 100% | Hatch/d4: number of embryos (mice embryos; [3]): 14 | Hatch/d4: portion of the initial number of embryos (mice embryos; [3]): 82.35% | comp/d2: number of embryos (mice embryos; [3]): 14 | 8 cell/d2: number of embryos (mice embryos; [4]): 14 | Blast/d3: number of embryos (mice embryos; [4]): 12 | Blast/d4: number of embryos (mice embryos; [4]): 5 | Hatch/d4: number of embryos (mice embryos; [4]): 15 | Hatch/d4: portion of the initial number of embryos (mice embryos; [4]): 62.5% | comp/d2: number of embryos (mice embryos; [4]): 6 | degenerative: number of embryos (mice embryos; [4]): 1 | early Blast/d3: number of embryos (mice embryos; [4]): 8 | Cultures with axonal regeneration (%) ([2]; calcium preparation at Ca2+ 2 mM): 50%

O=C([O-])[O-].[Na+].[Na+] [NaCO3, sodium carbonate]
embryonic development compared to control or to the addition of ACC-PP (mice embryos; Example 17, 1.7 mM in cleavage media): very poor embryonic development | 8 cell/d2: number of embryos (mice embryos; [5]): 2 | Blast/d3: number of embryos (mice embryos; [5]): 0 | Blast/d4: number of embryos (mice embryos; [5]): 0 | Hatch/d4: number of embryos (mice embryos; [5]): 0 (0) | Hatch/d4: portion of the initial number of embryos (mice embryos; [5]): 0 (0) % | comp/d2: number of embryos (mice embryos; [5]): 7 | degenerative: number of embryos (mice embryos; [5]): 1 | early Blast/d3: number of embryos (mice embryos; [5]): 0 | 8 cell/d2: number of embryos (mice embryos; [6]): 6 | Blast/d3: number of embryos (mice embryos; [6]): 2 | Blast/d4: number of embryos (mice embryos; [6]): 0 | Hatch/d4: number of embryos (mice embryos; [6]): 2 | Hatch/d4: portion of the initial number of embryos (mice embryos; [6]): 12.5% | comp/d2: number of embryos (mice embryos; [6]): 8 | degenerative: number of embryos (mice embryos; [6]): 2 | early Blast/d3: number of embryos (mice embryos; [6]): 14

N[C@@H](COP(=O)(O)O)C(=O)O [PS, phosphoserine]
8 cell/d2: number of embryos (mice embryos; [7]): 5 | Blast/d3: number of embryos (mice embryos; [7]): 12 | Blast/d3: portion of the initial number of embryos (mice embryos; [7]): 92.3% | Hatch/d4: number of embryos (mice embryos; [7]): 10 | Hatch/d4: portion of the initial number of embryos (mice embryos; [7]): 76.9% | comp/d2: number of embryos (mice embryos; [7]): 8 | Cultures with axonal regeneration (%) ([2]; stabilizer alone at 0.05%): 0%

polyphosphate [PP]
8 cell/d2: number of embryos (mice embryos; [8]): 9 | Blast/d3: number of embryos (mice embryos; [8]): 20 | Blast/d3: portion of the initial number of embryos (mice embryos; [8]): 54.1% | Hatch/d4: number of embryos (mice embryos; [8]): 17 | Hatch/d4: portion of the initial number of embryos (mice embryos; [8]): 45.9% | comp/d2: number of embryos (mice embryos; [8]): 20 | 8 cell/d2: number of embryos (mice embryos; [9]): 6 | Blast/d3: number of embryos (mice embryos; [9]): 34 | Blast/d3: portion of the initial number of embryos (mice embryos; [9]): 94.44% | Hatch/d4: number of embryos (mice embryos; [9]): 16 | Hatch/d4: portion of the initial number of embryos (mice embryos; [9]): 44.44% | comp/d2: number of embryos (mice embryos; [9]): 30

CC(O)(P(=O)(O)O)P(=O)(O)O [ET, Etidronic Acid]
Cultures with axonal regeneration (%) ([2]; stabilizer alone at 0.05%): 33.3%
